Experimental data: article PMC7181131, “N-Pyrazinoyl Substituted Amino Acids as Potential Antimycobacterial Agents—the Synthesis and Biological Evaluation of Enantiomers” (Molecules, 2020)
Converted amounts (≈) assume the structure as drawn. Where two headings read alike, the source gives them in different places.

Legend:
[1] = system: Mycobacterium aurum DSM 43999 (ATCC 23366); assay: Microplate Alamar Blue Assay (MABA) microdilution, M. aurum; type: cell-based
[2] = system: Mtb H37Ra ITM-M006710 (ATCC 9431); assay: Microplate Alamar Blue Assay (MABA) microdilution, Mtb H37Ra; type: cell-based, Mycobacterium tuberculosis; conditions: Mycobacterium tuberculosis
[3] = system: M. smegmatis DSM 43465 (ATCC 607); assay: Microplate Alamar Blue Assay (MABA) microdilution, M. smegmatis; type: cell-based, Mycobacterium smegmatis
[4] = Solubility in the cultivation medium of the antibacterial and antifungal screening; conditions: for solubility in the cultivation medium: antibacterial testing medium; for solubility in the medium: antifungal testing medium
[5] = system: Trichophyton interdigitale CCM 8377 (ATCC 9533); assay: Antifungal microdilution broth method, TI; type: cell-based; conditions: 48 h, read-out: MIC TI
[6] = system: Candida tropicalis CCM 8264 (ATCC 750); assay: Antifungal microdilution broth method, CT; type: cell-based; conditions: 24 h, read-out: MIC CT
[7] = system: Candida parapsilosis CCM 8260 (ATCC 22019); assay: Antifungal microdilution broth method, CP; type: cell-based; conditions: Lodderomyces parapsilosis, 24 h, read-out: MIC CP
[8] = system: Candida albicans CCM 8320 (ATCC 24433); assay: Antifungal microdilution broth method, CA; type: cell-based; conditions: 24 h, read-out: MIC CA
[9] = system: M. kansasii CNCTC My 235/80 (ATCC 12478); assay: Antimycobacterial pre-screening, microdilution broth, M. kansasii; type: cell-based; conditions: Mycobacterium kansasii, ATCC12478; Middlebrook 7H9 broth of declared pH 6.6
[10] = system: M. avium ssp. avium CNCTC My 80/72 (ATCC 15769); assay: Antimycobacterial pre-screening, microdilution broth, M. avium; type: cell-based; conditions: Mycobacterium avium, ATCC15769; Middlebrook 7H9 broth of declared pH 6.6
[11] = system: Mycobacterium tuberculosis H37Rv CNCTC My 331/88 (ATCC 27294); assay: Antimycobacterial pre-screening, microdilution broth, Mtb H37Rv; type: cell-based; conditions: Middlebrook 7H9 broth of declared pH 6.6
[12] = system: Lichtheimia corymbifera CCM 8077; assay: Antifungal microdilution broth method, LC; type: cell-based; conditions: CCM8077, 48 h, read-out: MIC LC
[13] = system: Candida krusei CCM 8271 (ATCC 6258); assay: Antifungal microdilution broth method, CK; type: cell-based; conditions: Pichia kudriavzevii, 24 h, read-out: MIC CK
[14] = system: Mycobacterium tuberculosis H37Rv CNCTC My 331/88 (ATCC 27294); set-up: method as in doi:10.3184/030823407×200001; conditions: study by Pinheiro et al. ref 32; cited from earlier work
HepG2 cell line = assay: HepG2 cytotoxicity, CellTiter 96 (MTS) assay; type: cell-based, human; conditions: Homo sapiens, read-out: HepG2 IC50
[15] = system: Aspergillus flavus CCM 8363; assay: Antifungal microdilution broth method, AFla; type: cell-based; conditions: CCM8363, read after 48 h (filamentous fungi), read-out: MIC AFla
[16] = system: Aspergillus fumigatus ATCC 204305; assay: Antifungal microdilution broth method, AF; type: cell-based; conditions: ATCC204305, 48 h, read-out: MIC AF
[17] = system: Staphylococcus epidermidis CCM 4418 (ATCC 12228); assay: Antibacterial microdilution broth method, SE; type: cell-based; conditions: 24 h, read-out: MIC SE
[18] = system: Klebsiella pneumoniae CCM 4415 (ATCC 10031); assay: Antibacterial microdilution broth method, KP; conditions: read after 24 h of incubation
[19] = Mycolicibacterium aurum, pH 6; read-out: MIC M. aurum
[20] = Mycolicibacterium aurum, pH 6.6; read-out: MIC M. aurum
[21] = pH 6.6, read-out: MIC Mtb H37Ra
[22] = pH 6, calculated from µg/mL, read-out: MIC Mtb H37Ra
[23] = Mycolicibacterium smegmatis, pH 6; read-out: MIC M. smegmatis
[24] = Mycolicibacterium smegmatis, pH 6.6; read-out: MIC M. smegmatis
[25] = Mycolicibacterium aurum, pH 6, read-out: MIC M. aurum µg/mL
[26] = Mycolicibacterium aurum, pH 6.6, read-out: MIC M. aurum
[27] = Mycolicibacterium smegmatis, pH 6, read-out: MIC M. smegmatis µg/mL
[28] = Mycolicibacterium smegmatis, pH 6.6, read-out: MIC M. smegmatis

Compound: CC[C@@H](C)[C@@H](NC(=O)c1cnccn1)C(=O)OC [PC-D-Ile-Me, methyl (pyrazine-2-carbonyl)-D-isoleucinate]
- MIC [1, 19]: 250 µg/mL (≈ 995 µM)
- MIC [1, 20]: ≥ 500 µg/mL
- MIC ([2]; pH 6): 250 µg/mL
- MIC ([2]; pH 6, read-out: MIC Mtb H37Ra): 250 µg/mL
- MIC [2, 21]: ≥ 500 µg/mL
- MIC [2, 22]: 995 µM
- MIC [3, 23]: 250 µg/mL (≈ 995 µM)
- MIC [3, 24]: ≥ 500 µg/mL
- solubility in the cultivation medium [4]: insoluble
- solubility in the medium [4]: insoluble

Compound: C=C(NC(=O)c1cnccn1)C(=O)OC [PC-MeAcr, methyl 2-(pyrazine-2-carboxamido)acrylate]
- MIC [5]: > 125 µM
- MIC [6]: > 125 µM
- MIC [7]: > 125 µM
- MIC [8]: > 125 µM
- MIC [9]: 100 µg/mL (≈ 483 µM)
- MIC [10]: > 100 µg/mL
- MIC [11]: 50 µg/mL (≈ 241 µM)
- MIC [1, 25]: 62.5 µg/mL (≈ 302 µM)
- MIC [1, 26]: 62.5 µg/mL (≈ 302 µM)
- MIC [12]: > 125 µM
- MIC ([2]; pH 6): 62.5 µg/mL
- MIC ([2]; pH 6, read-out: Mtb pH 6 MIC): 302 µM
- MIC ([2]; pH 6, read-out: MIC Mtb H37Ra): 62.5 µg/mL
- MIC [2, 21]: 15.6 µg/mL
- MIC [2, 22]: 302 µM
- MIC [13]: > 125 µM
- MIC on Mtb H37Rv [14]: 50 µg/mL (≈ 241 µM)
- IC50 (HepG2 cell line; HepG2, 24 h): > 500 µM
- MIC [3, 27]: ≥ 125 µg/mL
- MIC [3, 28]: 31.2 µg/mL (≈ 151 µM)
- MIC [15]: > 125 µM
- MIC [16]: > 125 µM
- MIC [17]: > 125 µM

Compound: CCOC(=O)[C@H](CC(C)C)NC(=O)c1cnccn1 (racemic) [PC-DL-Leu-Et, ethyl (pyrazine-2-carbonyl)leucinate]
- MIC [5]: > 500 µM
- MIC [6]: > 500 µM
- MIC [7]: > 500 µM
- MIC [8]: > 500 µM
- MIC [9]: > 100 µg/mL
- MIC [10]: > 100 µg/mL
- MIC KP [18]: > 500 µM
- MIC [11]: 100 µg/mL (≈ 377 µM)
- MIC [1, 25]: ≥ 125 µg/mL
- MIC [1, 26]: 250 µg/mL (≈ 942 µM)
- MIC [12]: > 500 µM
- MIC ([2]; pH 6): 15.6 µg/mL
- MIC ([2]; pH 6, read-out: MIC Mtb H37Ra): 15.6 µg/mL
- MIC [2, 21]: 250 µg/mL
- MIC ([2]; pH 6, Table 4, read-out: Mtb pH 6 MIC): 59 µM
- MIC [2, 22]: 58.9 µM
- MIC [13]: > 500 µM
- IC50 (HepG2 cell line; HepG2, 24 h incubation, CellTiter 96): 788 µM
- MIC [3, 27]: ≥ 125 µg/mL
- MIC [3, 28]: 250 µg/mL (≈ 942 µM)
- MIC [15]: > 500 µM
- MIC [16]: > 500 µM
- MIC [17]: > 500 µM

Compound: CCOC(=O)[C@H](Cc1ccccc1)NC(=O)c1cnccn1 (racemic) [PC-DL-Phe-Et, ethyl (pyrazine-2-carbonyl)phenylalaninate]
- MIC [5]: > 500 µM
- MIC [6]: > 500 µM
- MIC [7]: > 500 µM
- MIC [8]: > 500 µM
- MIC [9]: > 100 µg/mL
- MIC [10]: > 100 µg/mL
- MIC KP [18]: > 500 µM
- MIC [11]: > 100 µg/mL
- MIC [1, 25]: 62.5 µg/mL (≈ 209 µM)
- MIC [1, 26]: ≥ 500 µg/mL
- MIC [12]: > 500 µM
- MIC ([2]; pH 6): 31.2 µg/mL
- MIC ([2]; pH 6, read-out: MIC Mtb H37Ra): 31.2 µg/mL
- MIC [2, 21]: 250 µg/mL
- MIC [2, 22]: 104 µM
- MIC [13]: > 500 µM
- MIC [3, 27]: ≥ 125 µg/mL
- MIC [3, 28]: 250 µg/mL (≈ 835 µM)
- MIC [15]: > 500 µM
- MIC [16]: > 500 µM
- MIC [17]: 500 µM (≈ 150 µg/mL)

Compound: CC[C@H](C)[C@H](NC(=O)c1cnccn1)C(=O)OC [PC-L-Ile-Me, methyl (pyrazine-2-carbonyl)-L-isoleucinate]
- MIC [1, 19]: ≥ 500 µg/mL
- MIC [1, 20]: ≥ 500 µg/mL
- MIC ([2]; pH 6): 250 µg/mL
- MIC ([2]; pH 6, read-out: MIC Mtb H37Ra): 250 µg/mL
- MIC [2, 21]: ≥ 500 µg/mL
- MIC [2, 22]: 995 µM
- MIC [3, 23]: ≥ 500 µg/mL
- MIC [3, 24]: ≥ 500 µg/mL
- solubility in the cultivation medium [4]: insoluble
- solubility in the medium [4]: insoluble

Compound: O=C(N[C@H](CO)C(=O)O)c1cnccn1 [PC-D-Ser, (pyrazine-2-carbonyl)-D-serine]
- MIC [5]: 500 µM (≈ 106 µg/mL)
- MIC [6]: > 500 µM
- MIC [7]: > 500 µM
- MIC [8]: > 500 µM
- MIC [9]: > 100 µg/mL
- MIC [10]: > 100 µg/mL
- MIC KP [18]: > 500 µM
- MIC [11]: > 100 µg/mL
- MIC [1, 25]: 62.5 µg/mL (≈ 296 µM)
- MIC [1, 26]: ≥ 500 µg/mL
- MIC [12]: > 500 µM
- MIC ([2]; pH 6): ≥ 250 µg/mL
- MIC ([2]; pH 6, read-out: MIC Mtb H37Ra): ≥ 250 µg/mL
- MIC [2, 21]: ≥ 500 µg/mL
- MIC [2, 22]: ≥ 1180 µM
- MIC [13]: > 500 µM
- MIC [3, 27]: 125 µg/mL (≈ 592 µM)
- MIC [3, 28]: ≥ 500 µg/mL
- MIC [15]: > 500 µM
- MIC [16]: > 500 µM
- MIC [17]: > 500 µM

Compound: COC(=O)C[C@@H](NC(=O)c1cnccn1)C(=O)OC [PC-D-Asp-diMe, dimethyl (pyrazine-2-carbonyl)-D-aspartate]
- MIC [1, 19]: ≥ 125 µg/mL
- MIC [1, 26]: ≥ 125 µg/mL
- MIC ([2]; pH 6): ≥ 125 µg/mL
- MIC ([2]; pH 6, read-out: MIC Mtb H37Ra): ≥ 125 µg/mL
- MIC [2, 21]: ≥ 125 µg/mL
- MIC [2, 22]: ≥ 468 µM
- MIC [3, 23]: ≥ 125 µg/mL
- MIC [3, 28]: ≥ 125 µg/mL
- solubility in the cultivation medium [4]: insoluble
- solubility in the medium [4]: insoluble

Compound: O=C(O)CNC(=O)c1cnccn1 [PC-Gly, (pyrazine-2-carbonyl)glycine]
- MIC [5]: > 500 µM
- MIC [6]: > 500 µM
- MIC [7]: > 500 µM
- MIC [8]: > 500 µM
- MIC [9]: > 100 µg/mL
- MIC [10]: > 100 µg/mL
- MIC KP [18]: > 500 µM
- MIC [11]: > 100 µg/mL
- MIC [1, 25]: ≥ 125 µg/mL
- MIC [1, 26]: ≥ 500 µg/mL
- MIC [12]: > 500 µM
- MIC ([2]; pH 6): ≥ 125 µg/mL
- MIC ([2]; pH 6, read-out: MIC Mtb H37Ra): ≥ 125 µg/mL
- MIC [2, 21]: ≥ 500 µg/mL
- MIC [2, 22]: ≥ 690 µM
- MIC [13]: 500 µM (≈ 90.6 µg/mL)
- MIC [3, 27]: ≥ 125 µg/mL
- MIC [3, 28]: ≥ 500 µg/mL
- MIC [15]: > 500 µM
- MIC [16]: > 500 µM
- MIC [17]: > 500 µM
